“And” between values parts separate entries of the source, which are not always exact repeats. Equal entries are not always repeated.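 Test compounds were applied to cells in 96-well plates for 48 hours at 5 doses. Here, GI50 denotes the concentration required for 50% inhibition of growth. TGI: total growth inhibition.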
Test system: MDA-MB-468 breast
Assay: NCI anticancer screen, dose series, 48 h

Compound	GI50	TGI [nM]
CC[C@@H](C)/C=C(C)/C=C/C(=O)c1c(O)c(-c2ccc(O)cc2)cn(O)c1=O	167 nM	624
CCOc1ccn(-c2ccc(F)cc2)c(=O)c1C(=O)Nc1ccc(Oc2ccnc(N)c2Cl)c(F)c1	5700 nM	34800
CCN(Cc1cccc(Cl)c1)c1ccc(CO)c(Cl)c1	25 nM	81.7
Cc1cc(Nc2cc(N3CCN(C)CC3)nc(/C=C/c3ccccc3)n2)n[nH]1	590 nM	2440
CC(C)COc1nc2c(c(=O)n(C)c(=O)n2C)n1C	> 100000 nM	> 100000
N#Cc1cnc(Nc2cc(NC[C@H]3CNCCO3)c(C(F)(F)F)cn2)cn1	16400 nM	37400
CC(=O)C1=C(O)C=C2Oc3c(C(=O)/C=C/c4cc(Cl)cc(Cl)c4)c(O)c(C)c(O)c3[C@]2(C)C1=O	529 nM	1340
O=[N+]([O-])c1cc([N+](=O)[O-])c(Nn2c3ccccc3c3ccccc32)c([N+](=O)[O-])c1	274 nM	782
CN1CCN(C(=O)COc2ccc(/C=C3\CC4C5CC=C6CC(Cl)CCC6(C)C5CCC4(C)C3=O)cc2)CC1 (configuration not stated)	6030 nM	> 100000
Clc1ccccc1-c1nnc2c(Cc3ccccc3)nc3ccccc3n12	5240 nM	> 100000
Cc1cc2c(-c3nc4ccccn4c3N)c(O)c(O)cc2c(O)c1-c1c(C)cc2c(-c3nc4ccccn4c3N)c(O)c(O)cc2c1O	538 nM	3520
CCN(CC)CCCC(C)N/C(=C1\C(=O)NC(=O)\C1=C(/NC(C)CCCN(CC)CC)c1cccc(OC)c1)c1cccc(OC)c1 (configuration not stated)	762 nM	1750
CC(=O)[C@H]1CCC/C=C/[C@@H]2C[C@H](O)C[C@H]2[C@H](O)/C=C/C(=O)O1	159 nM	687
C#CCN(c1ccc(C(=O)N[C@@H](CCC(=O)N[C@H](CCC(=O)O)C(=O)O)C(=O)O)cc1)C1CCc2cc3nc(CO)[nH]c(=O)c3cc21 (some centres not stated)	> 23100 nM	> 100000
c1ccc(CNCCN(CCNCc2ccccn2)Cc2ccc3ccccc3c2)nc1	2180 nM	4920
CSc1nc2c(c(=O)n1C)CN(C1CCCCC1)C(=O)C(c1ccccc1)N2 (configuration not stated)	52200 nM	> 100000
COc1cc(C(=O)c2cnc(-c3cccc4[nH]ccc34)[nH]2)cc(OC)c1OC	64.6 nM and < 10 nM	88700
CC(=O)c1cc(C(=O)c2ccc3c(c2)Sc2ccccc2N3)n2ccccc12	2.56 nM and 3.32 nM	–
CCCCCCCC/C=C/CCCCCCCC1=NC(C)(C)CN1CCO	1670 nM	3210
COc1ccc([C@@]23Oc4cc(OC)cc(OC)c4[C@]2(O)[C@H](O)[C@H](C(N)=O)[C@H]3c2ccccc2)cc1	< 10 nM	45.8
CO[C@H]1CC(O[C@@H]2/C(C)=C/C[C@@H]3C[C@@H](C[C@]4(CC[C@H](C)[C@@H](C5CCCCC5)O4)O3)OC(=O)[C@@H]3C=C(C)/C(=N/O)[C@H]4OC/C(=C\C=C\[C@@H]2C)[C@]43O)O[C@@H](C)C1O (some centres not stated)	793 nM	1760
O=S(=O)(Nc1ccc(I)c(Cl)c1)c1ccc(-c2cnc(C3CC3)o2)cc1	314 nM	2650
Cn1cc(-c2cnn3c(N)c(Br)c(C4CCCNC4)nc23)cn1 (configuration not stated)	11100 nM	44100
Cc1cc(Nc2nc(N[C@@H](C)c3ncc(F)cn3)ncc2Cl)n[nH]1	18200 nM	52100
